Experimental data from publication PMC9295122, “Sialic Acid Derivatives Inhibit SiaT Transporters and Delay Bacterial Growth” (ACS Chemical Biology, 2022).

Test system: P. mirabilis strain HI4320
Experiment: Bacterial growth assay in MM with Neu5Ac, P. mirabilis
Assay type: cell-based, Proteus mirabilis
Settings: P. mirabilis HI4320, MM + Neu5Ac 3.2 mM, compound 0.5 mM
Protocol: To investigate the efficacy of compounds 3e and 3f in inhibiting the uptake of Neu5Ac, bacterial growth assays were performed on a uropathogenic P. mirabilis strain HI4320 and a clinical HA-MRSA isolate S. aureus strain COL. The goal was to verify that compounds 3e and 3f alter bacterial growth when grown on Neu5Ac as an additional carbon source. Growth alteration would indicate Neu5Ac uptake impairment, thus validating our approach.
We first addressed whether these bacteria were able to catabolize the inhibitors and potentially use them as a carbon source for growth. Each strain was grown in carbon-limited defined minimal media (MM), without any carbon source other than sodium citrate for P. mirabilis and casamino acids for S. aureus, and supplemented with 3e and 3f. […] With these promising results, bacterial growth assays were performed in MM supplemented with Neu5Ac at a concentration of 3.2 mM and with 0.5 mM of compounds 3e and 3f (Figure 6a,b). The lag phase duration was determined as the time for the initial population density to increase twofold (see the horizontal dashed lines in Figure 6a,b). […] In the case of P. mirabilis, compound 3e indicated a delay in growth (3 h, P = 0.06), while no effect was recorded for compound 3f. […]

Row | Compound | delay in growth (lag phase)
1 | CC(=O)NC1C(OCc2cc(F)cc(F)c2)CC(O)(C(=O)O)OC1C(O)C(O)CO (centres unmarked) [Compound 3e] | 3 h
2 | CC(=O)NC1C(OCc2cc(Br)cc(Br)c2)CC(O)(C(=O)O)OC1C(O)C(O)CO (centres unmarked) [Compound 3f] | no effect
